“Also recorded” adds a separate entry of the source. Structures can show the parent of a compound that is named as a salt.
How the values were obtained:
HSCs = test: HSC culture with NR pre-treatment followed by 3I, number of CD48−Sca1+ cells; assay type: cell-based; details: NR-treated (1 mM) HSCs from old mice; 3I 6 μM each; FIG. 12E
From the text: The NR treatment was continued on das 3 and 4. […] N=3 HSC cultures derived from 3 individual mice per group. […] Error bars depict SD.
(§1) To test the hypothesis that NAD(P) availability limits the potential of HSPCs from old mice to respond to changes in nutrient availability, freshly isolated HSCs from young and old mice were exposed to inhibitors of mitochondrial nutrient uptake.
For testing the response of HSPCs to the blocking of glycolysis or mitochondrial ATP synthesis, 2-DG (Sigma, D8375) or oligomycin A (Sigma, 75351) were used. For the inhibition of nutrient uptake into mitochondria, three inhibitors (3I) were used. BPTES (Sigma, SML0601) blocks […] uptake, Etomoxir (Sigma E1905) blocks Fatty acids uptake, and UK5099 (Sigma PZ0160) blocks pyruvate uptake. The final concentration of each inhibitor in the culture medium is 6 μM. Same amount of DMSO was used in the medium as control. For determination of cell number after NR treatment 500 HSCs from young (2-3 months) and old (22-24 months) were pre-incubated either with 1 mM NR (provided by Prof. Johan Auwerx Lab) or DMSO as control for 2 days followed by 2 days treatment with the inhibitors (BPTES, Etomoxir and UK5099, 6 μM each) or same amount of DMSO as control. The cells were then analyzed by BD LSR fortessa.

CMPs [1] = test: Seahorse basal oxygen consumption rate after NR pre-treatment followed by 3I; assay type: cell-based, mice; details: FIG. 12F
Protocol: (F) Basal oxygen consumption rate in CMPs from young (3-5 months, n=4) and old mice (22-24 months, n=4). Cells were either pretreated with 1 mM […] (NR) or DMSO (Con) for 12 h. This was followed by treatment for 12h in vitro to combination of 3 inhibitors of mitochondrial nutrient uptake (by BPTES=6 uM, Etomoxir=6 uM, UK5099=6 uM) or DMSO as control. The data were not normally distributed (Shapiro-Wilk test) and the Mann-Whitney test was used for the calculation of p-values.
as §1
For CMP and GMP 80,000 cells were used. For MPP 60,000 cells were used.

[2] = system: stress response genes in MPPs (CD34+Flt3−LSK); test: NanoString analysis of stress response genes in MPPs pre-treated in vitro with NR followed by 3I or vehicle; assay type: cell-based, mice
Protocol: (C,D) NanoString analysis on the expression of stress response genes was carried out on 10,000 MPPs (CD34^+Flt3^−LSK) from young (3-4 months, n=4) and old mice (22-24 months, n=4). MPPs were pre-treated in culture with 1 mM NR or DMSO (Con) for 12h followed by treatment with 31 or Vehicle (Veh: 0.4% DMSO) for 12h under continuation of NR or Veh treatment. (C,D) Volcano plots for the NanoString analysis.
(G,H) NanoString analysis on the expression of stress response genes was carried out on 10,000 MPPs (CD34^+Flt3^−LSK) from young (3-4 months, n=4) and old mice (22-24 months, n=4). MPPs were pre-treated in vitro with 1 mM NR or DMSO (Con) for 12h followed by treatment with 31 or Vehicle (Veh: 0.4% DMSO) for 12h. The NR treatment was continued for the time window of 12-24h. (G, H) Volcano plots on the NanoString analysis of stress response genes.
as §1
Measuring of RNA expression by NanoString was done according to our previous publication (Chen et al., 2019) and according to manufacturer protocol (NanoString technologies). In brief, 1×10^4 cells were lysed in 2 μL of lysis/binding solution (Applied Biosystems, 8500G14). The cell lysate was then used for hybridization reaction as following: 2 μL of cell lysate was mixed with 5 μL of nCounter hybridization buffer (NanoString), 2 μL of Core Tagset, 2 μL of extension Tagset, 0.5 μL of […] Probe A working pool, 0.5 μL of […] probe A extension Pool, 0.5 μL of 3 nm Probe B working pool, and 0.5 μL of 3 nM Probe B extension pool (from IDT technologies). 2 μL of Nuclease-free water was added to each reaction to reach a final volume of 15 μL. The reaction mixture was prepared in Strip tubes (from NanoString technologies). Then it was incubated at 67° C. using thermal cycler (Masterycler from Eppendorf) for 16 h. Afterward, the Nanostring chemistry was processed automatically using nCounter prep-station 5s (NanoString technologies) according to manufacturer protocol. Directly after the run, the nCounter Cartridge was loaded into nCounter digital analyzer 5s (NanoString technologies). For NanoString analysis on young and old mice exposed to DR or AL food, freshly FACS-Sorted MPPs (CD34^+Flt3^− LSK) were used. […] Cells from NR treatment and DMSO were divided into 2 halves and further treated with 3I (6 μM each) or DMSO as control. The cells were harvested for NanoString analysis as described above. Data analysis was done after background correction using nSolver advanced analysis software (v.4) and (R software v 3.3.2.). The following housekeeping genes were used for normalization: ActB, B2M, Gapdh, Gusb, Hprt, PGK1, Polr1b, Polr2a, Ppia, Rpl19, Sdha, and Tbp. Heatmaps and volcano plots was done using GraphPad prism software version 8.

CMPs [3] = test: Respirometry (OCR) of freshly isolated CMPs from mice fed NR, DR or NR/DR; assay type: in vivo; details: 2 weeks
From the text: (§2) FIG. 13 (A-J) Young (2-3 month old) and old (22-24 month old) mice were exposed for 2 weeks to the indicated diet: ad libitum diet (AL), dietary restriction (DR=CRD), NAD-precursor supplementation (=NR), NR/DR—combination of NR plus DR.
(A-C) Respirometry analysis of the OCR of freshly-isolated CMPs in: (A) young and (B) old mice; (C) Quantification of OCR at basal level of the indicated groups as measured in (A,B, before oligomycin-application, marked by 0). N=4-6 mice per group. The Data were normally distributed (Shapiro-Wilk test) after log transformation. Error bars represent SD. P-values were calculated on average data of 4 time points using 2-way ANOVA with Tukey's multiple comparisons test on log-transformed data.
To experimentally test whether mitochondrial enhancement could re-empower DR (=CRD) in old mice, young and old mice were exposed to NAD+ supplementation by feeding of nicotinamide riboside (NR). In addition, the mice were exposed for 2 weeks to DR (=CRD), starting 1 week after NR pre-feeding, or continuous AL feeding.

[4] = system: stress response genes in HSCs; test: NanoString mRNA analysis of stress response genes in freshly isolated HSCs from dietary cohorts; assay type: in vivo, mice; details: 2 weeks, listed as NR-alone
From the text: as §2
(G-K) NanoString mRNA analysis of stress response genes in freshly-isolated HSCs from young (Y) and old (O) mice that were exposed to ad libitum (AL) or dietary restriction (DR diet for 2 weeks) of NAD-precursor treatment (NR) or a combination of NR plus DR (=NR/DR). The dotted lines represent the q-value of 0.05.
To analyze whether the NR/DR-mediated re-installment of mitochondrial metabolic plasticity in HSCs from old mice could rescue the induction of metabolic stress signals, freshly isolated HSCs from 2-week dietary cohorts were analyzed with the same NanoString assay as described above.
Measuring of RNA expression by NanoString was done according to our previous publication (Chen et al., 2019) and according to manufacturer protocol (NanoString technologies). In brief, 1×10^4 cells were lysed in 2 μL of lysis/binding solution (Applied Biosystems, 8500G14). […]

HSCs (CD150+CD34−LSK) = test: Competitive transplantation of HSCs from dietary cohorts, repopulation capacity (peripheral blood chimerism); assay type: in vivo; details: HSCs from young mice; 2 weeks intervention; FIG. 14A
[5] = system: 22-24 months old female mice; test: Lifespan (Kaplan Meier survival) of old mice under long-term dietary treatments; assay type: in vivo
Protocol: (B) Kaplan Meier survival analysis in cohorts of mice that were exposed to DR-alone, NR-alone, or NR/DR co-treatment compared to AL-feeding. Dietary interventions were started at the age of 22-24 months and continued over lifetime. […] P-values were calculated using Mantel-Cox test. The p-values that are shown next to the intervention naming refer to the comparison of the intervention to the AL-diet group.
To test effects of these dietary intervention on organism lifespan, 4 cohorts of 22-24 months old female mice (n=14-15 mice per group) were exposed to long-term treatments (until the end of life or the occurrence of humane endpoints).

old mice = details: previous studies; cited from earlier work
CMPs [6] = test: OCR of CMPs in glucose-restricted medium from old mice fed CRMs with or without NAD-precursor; assay type: in vivo; details: old mice (22-24 months), 2 weeks, glucose depletion, FIG. 15
Protocol: FIG. 15—Old (22-24 months old) mice were exposed for 2 weeks to the indicated diet: ad libitum (AL), Metformin (met), NAD-precursor (NR), NRM—combination of NR plus Metformin. Curves show respirometry analysis of the OCR of freshly isolated CMPs. The OCRs were continuously measured for 12h in freshly isolated CMPs grown in glucose-restricted medium (1 mM=R).
To test whether NAD precursor supplementation would cooperate with specific CRMs that mimic a certain sub-pathway induced by CRD, different classes of CRMs were employed. We tested the combined effects of NAD supplementation with • (a) Metformin—a CRM, which induces mitochondrial stress • (b) Pterostilbene—a CRM which induces Sirtuin-dependent stress responses including autophagy • (c) Spermidine—a CRM, which induces autophagy (ad ownstream target of sirtuins (see above)
Old mice (22-24 months) were fed with CRMs (a-c) with or without combination with NAD-precursor supplementation for 2 weeks before analysis. Freshly isolated hematopoietic cells (CMPs) were tested for a rescue in responsiveness to activate mitochondria in response to glucose depletion—a marker of metabolic improvement induced by CRD in young mice or by a combination of NAD precursor supplementation plus CRD in old mice. […]

female Drosophila = details: 400 μM, high-fat diet; cited from earlier work
[7] = Y.Con + 3I versus O.NR + 3I, MPPs, 12 h pre-treatment with NR

## NC(=O)c1ccc[n+]([C@@H]2O[C@H](CO)[C@@H](O)[C@H]2O)c1 [NR, Nicotinamide riboside]
HSCs
  response to 3I-treatment: cell proliferation: suppression of cell proliferation
CMPs [1]; NR-treated (1 mM) cells from old mice, 3I 6 uM each
  response to 3I-treatment: oxidative metabolism: reduction of oxidative metabolism
CMPs [1]; cells from old mice, 1 mM NR
  oxidative metabolism (basal oxygen consumption rate): rescued oxidative metabolism to a similar level as observed in HSCs from young mice
[2]; [7]
  IDH1-mRNA LogZFC: −2.62
  Ino1-mRNA LogZFC: −1.78
  Myh9-mRNA LogZFC: −2.45
  NRas-mRNA LogZFC: −2.16
  Pds5A-mRNA LogZFC: −3.08
  atp5a1-mRNA LogZFC: 1.11
  unspliced XBP1-mRNA LogZFC: 2.56
[2]; cells exposed to 3I-treatment, 1 mM NR, FIG. 12H
  changes in the transcription of stress response genes in old vs. young cells: reverted changes in the transcription of stress response genes
[2]; old vs. young cells not exposed to 3I-treatment, 1 mM NR, FIG. 11C-E
  pre-existing, age-related changes in transcription of stress response genes: no significant effects
CMPs [3]; old mice, FIG. 13B,C
  mitochondrial respiration compared to AL-fed mice: neither of the single treatments was sufficient to induce mitochondrial respiration
CMPs [3]; young mice, FIG. 13A,C
  mitochondrial respiration compared to AL-fed mice: significant increases in mitochondrial respiration
[4]; HSCs from young mice, FIG. 13G
  induction of metabolic stress signals (stress response genes): induction of health-promoting stress response genes in young mice; also recorded: induced metabolic stress signals
[4]; HSCs of old mice, FIG. 13I,K
  induction of metabolic stress signaling (stress response genes): neither of the single treatments, NR-alone (FIG. 13I) or DR-alone (FIG. 13J) was able to induce metabolic stress signaling
HSCs (CD150+CD34−LSK)
  repopulation capacity of HSCs: increased the repopulation capacity
[5]; late-life treatment of old mice, this study
  increase in median life expectancy compared to AL: 10%
[5]; treatment started at 22-24 months, continued over lifetime, FIG. 14B
  lifespan compared to AL-fed control mice: slight increases in lifespan
Old mice
  increase in lifespan when applied to old mice: 6.9%

## CN(C)C(=N)N=C(N)N [metformin, Metformin-Hydrochlorid, reference compound]
CMPs [6]
  synergistic effects of NAD precursor supplementation combined with the CRM on inducing mitochondria activity (OCR): synergistic effects on inducing mitochondria activity

## Oc1ccc(C=Cc2cc(O)cc(O)c2)cc1 [resveratrol, Resveratrol]
Female Drosophila
  extension of the lifespan: 10%-15%

— US20230000888A1, “NAD-PRECURSORS AND DIETARY RESTRICTION FOR TREATING AGE RELATED MEDICAL CONDITIONS” (Leibniz-Institut für Alternsforschung - …, priority 2019, published 2023)
